Values after ≈ are worked out from the molar mass of the structure shown. Read-outs that look alike come from different tables or passages of the source.
Tests used:
[1] = system: C. neoformans var. grubii, KN99; experiment: C. neoformans growth inhibition assay (limiting dilution); format: cell-based, Cryptococcus neoformans; conditions: Cryptococcus neoformans, 48 h, 48 h, 35° C., read-out: C. neoformans MIC80
Experimental: Cell types used for C. neoformans studies. All inhibition assays were performed with C. neoformans var. grubii, KN99 (serotype A, MAT). Two clinical strains of C. neoformans var. grubii, serotype A, were provided by Tamara Doering and Andre Spec. […] Cells were diluted to OD650 0.001 in YNB-02 02 (0.67% yeast nitrogen base, 0.2% dextrose, pH 7.0 with 50 mM MOPs)+1% DMSO prior to addition to the plates for the inhibition assays.
C. neoformans growth inhibition assays. Compounds were tested in a limiting dilution assay with a starting optical density (at 650 nm) of 0.001 in YNB-02 plus 1% DMSO. Cells plus compound were incubated in 96-well clear round bottom plates covered with a Breath-easy® membrane without shaking for 48 hours at 35° C. Before measuring cell density, plates were shaken on a microtiter plate shaker at 900 rpm for 3 minutes to resuspend cells and optical density was measured at 650 nm. […] Each assay was done in triplicate and all values are the average of two or more independent assays. The data are presented as the average cell density as a percent of DMSO-only treated cells. MICs are reported as the minimal concentration needed to inhibit 80% of C. neoformans growth relative to vehicle-treated controls.

HSV-1 = experiment: Anti-HSV-1 replication assay (Vero cells, plaque titer); format: cell-based, herpes simplex virus 1; conditions: Human alphaherpesvirus 1, Vero; for log reduction at 0.33 µM: compound at 0.33 μM, read-out: HSV-1 suppression 0.33 μM; for log reduction at 5 µM: compound at 5 μM, read-out: HSV-1 suppression 5 μM; for log reduction at 1 µM: compound at 1 μM, read-out: HSV-1 suppression 1 μM
HBV replication = HBV replication inhibition in HepDES19 cells (strand-preferential qPCR); conditions: for EC50: Hepatitis B virus
Experimental: Cells used for toxicity and HBV studies.
HBV replication inhibition studies. HepDES19 cells were seeded in 96-well plates at 4×10^4 cells per well in the absence of tetracycline. Test compounds in a final DMSO concentration of 1% were applied to cells 48 hours after induction of HBV replication and cells were incubated with compounds for 72 hours. Cells were washed in 200 μL of phosphate buffered saline (PBS) and lysed in 150 μL of core lysis buffer (10 mM Tris pH 7.4, 1% Tween20, 150 mM NaCl). Cells were incubated at room temperate on an orbital shaker at 350 rpm for 40 minutes. Cell lysate was transferred to a 96 well polymerase chain reaction (PCR) plate and centrifuged at 3300×g for 5 minutes. The supernatant (50 μL) from the cell lysate was transferred to a 96-well PCR plate and mixed with 20 units of micrococcal nuclease and 100 μM CaCl2. The lysate was incubated for 1 hour at 37° C., and then the nuclease was inactivated at 70° C. for ten minutes. Qiagen protease (0.005 Anson units) was added to the lysate and the mixture was incubated overnight. Qiagen protease was then inactivated at 95° C. for ten minutes.
The crude lysate was used as the template for strand-preferential quantitative polymerase chain reaction (q-PCR) analysis. Quantitative PCR was performed with 40 cycles of 95° C. for 15 s and 60° C. for 1 minute employing the Kappa Probe Force universal PCR master mix.

in vitro = conditions: human, HepDES19 cells
human RNaseH1 = molecular target: T1, human RNaseH1 (Homo sapiens, UniProt O60930); experiment: Biochemical inhibition of human RNaseH1 activity; conditions: Table 2 amides; read-out: HuRH1 IC50
T1 sequence (O60930 1-286): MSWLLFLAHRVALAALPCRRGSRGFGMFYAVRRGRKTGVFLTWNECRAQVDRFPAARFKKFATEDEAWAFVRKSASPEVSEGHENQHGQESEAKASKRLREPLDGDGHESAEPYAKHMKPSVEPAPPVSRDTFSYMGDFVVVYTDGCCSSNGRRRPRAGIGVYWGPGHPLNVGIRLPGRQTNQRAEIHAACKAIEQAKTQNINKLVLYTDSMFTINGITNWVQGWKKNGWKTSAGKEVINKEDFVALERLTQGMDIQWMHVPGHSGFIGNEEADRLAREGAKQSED
Experimental: Biochemical inhibition of human RNaseH1 activity. Quantitative inhibition of the human RNaseH1 in the biochemical assays was assessed using a molecular beacon assay as described previously (Edwards et al., 2017). Recombinant human RNaseH 1 (0.3 μg) was incubated with 100 nM RNA:DNA substrate, 50 mM HEPES pH 8.0, 100 mM NaCl, 2 mM Tris(2-carboxyethyl)phosphine hydrochloride (TCEP), 0.05% Tween20, 5 units of RNaseOut, test compounds (0 to 500 μM), and 5% DMSO in a 100 μL reaction volume. The substrate was formed by annealing a complementary RNA oligonucleotide to a hairpin DNA oligonucleotide to hold the hairpin DNA oligonucleotide in an open conformation. The DNA oligonucleotide has a 5′ fluorescein reporter and a 3′ black hole quencher. When the RNA is degraded from the substrate the DNA oligonucleotide closes to form a hairpin structure, decreasing in signal intensity. Reactions were initiated with 5 mM MgCl2 and fluorescence was read using a Synergy HTS multi-mode plate reader at 37° C. Alternatively, the HBV RNaseH version used was MBP-HRHgtCΔ5, a genotype C isolate which lacks the C-terminal 35 amino acids of the HBV RNaseH domain that are predicted to be unstructured. Quantitative inhibition of the human RNaseH1 in biochemical assays was assessed using a FRET-based RNaseH assay under conditions previously reported for an RNaseH molecular beacon assay (Edwards et al., 2017). […] Cleavage of the RNA strand released the fluorescein from quenching, increasing fluorescence. Reactions were monitored for 90 min at 37° C. in a plate reader and initial reaction rates were calculated. Reactions contained escalating concentrations of the compounds.

[2] = Table 3 sulfur compounds, values separated by / are repeats
[3] = HepDES19, read-out: HBV EC50, Table 3 sulfur compounds, HBV replication, HepDES19 cells
[4] = CC50, Table 3 sulfur compounds, MTT
[5] = Table 2 amides, tested 0.19 to 50 μM
[6] = Table 2 amides, values separated by / are repeats

SMILES	MIC80 ([1]; Table 3 sulfur compounds) [µM]	EC50 (HBV replication; [3]) [µM]	IC50 (human RNaseH1) [µM]	CC50 at 24 h (in vitro; CC50 (μM), Table 2 amides, MTT) [µM]	MIC80 [1, 5] [µM]	log reduction at 5 µM (HSV-1; [6])	log reduction at 1 µM (HSV-1; [6])	also measured
Cc1cc(O)c(=O)c(O)cc1S(=O)(=O)c1ccccc1 [compound 336]	50 (≈ 14.6 µg/mL)	0.68	–	–	–	–	–	log reduction at 0.33 µM (HSV-1; [2]): 0.13; log reduction at 5 µM (HSV-1; [2]): 1.57
Cc1cc(O)c(=O)c(O)cc1S(=O)(=O)c1ccc(-c2ccccc2)cc1 [compound 337]	50 (≈ 18.4 µg/mL)	5.73	–	–	–	–	–	CC50 at 24 h (in vitro; [4]): 47.4 µM; log reduction at 0.33 µM (HSV-1; [2]): 0.28
Cc1ccc(S(=O)(=O)c2cc(O)c(=O)c(O)cc2C)cc1 [compound 367]	24 (≈ 7.35 µg/mL)	16.1	–	–	–	–	–	CC50 at 24 h (in vitro; [4]): 23 µM; log reduction at 1 µM (HSV-1; [2]): 0; log reduction at 5 µM (HSV-1; [2]): 0.49
CS(=O)(=O)c1ccc(O)c(=O)c(O)c1 [compound 382]	50 (≈ 10.8 µg/mL)	0.58	–	–	–	–	–	CC50 at 24 h (in vitro; [4]): 79.5 µM; Therapeutic index (CC50/EC50) for HBV (TI, SI) (HBV replication): 136
CSc1cccc(O)c(=O)c1O [compound 385]	24 (≈ 4.42 µg/mL)	4.4	–	–	–	–	–	CC50 at 24 h (in vitro; [4]): 100 µM; CC50 at 24 h (in vitro; CC50): 100 µM; log reduction at 5 µM (HSV-1; [2]): 2.5
CSc1ccc(SC)c(O)c(=O)c1O [compound 386]	24 (≈ 5.53 µg/mL)	6.73	–	–	–	–	–	CC50 at 24 h (in vitro; [4]): 68.9 µM; log reduction at 5 µM (HSV-1; [2]): 0.51
CS(=O)(=O)c1cccc(O)c(=O)c1O [compound 387]	50 (≈ 10.8 µg/mL)	0.41	–	–	–	–	–	log reduction at 5 µM (HSV-1; [2]): 0.02; EC50 (HBV replication; HepDES19, read-out: EC50 against HBV replication): 0.41 µM
O=c1c(O)cccc(S(=O)(=O)c2ccccc2)c1O [compound 408]	50 (≈ 13.9 µg/mL)	11.1	–	–	–	–	–	CC50 at 24 h (in vitro; [4]): 20.4 µM; log reduction at 5 µM (HSV-1; [2]): 0.56
CCCCS(=O)(=O)c1cccc(O)c(=O)c1O [compound 535]	50 (≈ 12.9 µg/mL)	2.02	–	–	–	–	–	CC50 at 24 h (in vitro; [4]): 19.2 µM; log reduction at 1 µM (HSV-1; [2]): 0.07
Cc1cc(O)c(=O)c(O)cc1C(=O)N1CCS(=O)(=O)C1 [compound 709]	–	–	84.8 ± 6.7	19.5 ± 6.7	50 (≈ 15 µg/mL)	-0.27	–	–
Cc1cc(O)c(=O)c(O)cc1C(=O)Nc1ccc(Cc2ccccc2)cc1 [compound 798]	–	–	467	3.3 ± 1.8	1.2 (≈ 0.434 µg/mL)	4.39	2.32	CC50 at 24 h (in vitro; CC50): 3.3 µM; log reduction at 0.33 µM (HSV-1; Table 2 amides): -0.0103
Cc1cc(O)c(=O)c(O)cc1C(=O)Nc1cccc(Cc2ccccc2)c1 [compound 799]	–	–	713 ± 496	5.3 ± 3.1	2 (≈ 0.723 µg/mL)	3.88	0.411	log reduction at 0.33 µM (HSV-1; Table 2 amides): 0.0848
Cc1cc(O)c(=O)c(O)cc1C(=O)NCc1ccc(Oc2ccccc2)cc1 [compound 807]	–	–	799 ± 403	6 ± 6.5	4.5 (≈ 1.7 µg/mL)	4.54	-0.11	log reduction at 0.33 µM (HSV-1; Table 2 amides): 0.0714
Cc1ccc(CNC(=O)c2cc(O)c(=O)c(O)cc2C)c(C)c1 [compound 809]	–	–	19.6 ± 20	5.8 ± 6.5	3.3 (≈ 1.03 µg/mL)	4.69	0.0278	–
Cc1cc(O)c(=O)c(O)cc1C(=O)Nc1ccccc1Cc1ccccc1 [compound 834]	–	–	37.2 ± 17.2	16.4 ± 11.2	9 (≈ 3.25 µg/mL)	1.8	–	–
Cc1cc(O)c(=O)c(O)cc1C(=O)Nc1ccccc1OCc1ccccc1 [compound 835]	–	–	725 ± 427	10.3 ± 5.2	4.5 (≈ 1.7 µg/mL)	5.23	–	–
Cc1cc(O)c(=O)c(O)cc1C(=O)Nc1cccc(OCc2ccccc2)c1 [compound 836]	–	–	606 ± 482	5.4 ± 3.5	4.5 (≈ 1.7 µg/mL)	5.2	–	–
Cc1cc(O)c(=O)c(O)cc1C(=O)NC(CCC(=O)OC(C)(C)C)C(=O)OC(C)(C)C (stereo not drawn) [compound 867]	–	–	675 ± 563	5.2 ± 1.3	4.3 (≈ 1.88 µg/mL)	3.49	–	–
Cc1cc(O)c(=O)c(O)cc1C(=O)NC(CCC(=O)O)C(=O)O (stereo not drawn) [compound 868]	–	–	27.7 ± 20.3	100	50 (≈ 16.3 µg/mL)	0.0414	-0.15	CC50 at 24 h (in vitro; CC50): 100 µM
Cc1cc(O)c(=O)c(O)cc1C(=O)NC(CCCCNC(=O)OC(C)(C)C)C(=O)OC(C)(C)C (stereo not drawn) [compound 869]	–	–	602 ± 273	14.6 ± 3.4	9 (≈ 4.33 µg/mL)	-0.147	–	–
Cc1cc(O)c(=O)c(O)cc1C(=O)NC(CC(C)C)C(=O)OC(C)(C)C (stereo not drawn) [compound 870]	–	–	289 ± 296	9.1 ± 2.7	5 (≈ 1.83 µg/mL)	0.811	–	–
Cc1cc(O)c(=O)c(O)cc1C(=O)N1CCN(C(=O)C2CCCCC2)CC1 [compound 872]	–	–	93 ± 53.3	14.4 ± 3.7	20 (≈ 7.49 µg/mL)	0.643	-0.158	–
Cc1cc(O)c(=O)c(O)cc1C(=O)N1CCN(C(=O)OC(C)(C)C)CC1 [compound 873]	–	–	74.7 ± 23.1	19.5 ± 8.7	20 (≈ 7.29 µg/mL)	0.2	-0.148	–
Cc1cc(O)c(=O)c(O)cc1C(=O)NCCNS(=O)(=O)c1ccc(C(F)(F)F)cc1 [compound 874]	–	–	52.6	17.7 ± 6.7	14 (≈ 6.25 µg/mL)	-0.15	–	–
Cc1cc(O)c(=O)c(O)cc1C(=O)N1CCN(C(=O)c2ccc(Cl)cc2)CC1 [compound 875]	–	–	17.2 ± 11	4.7 ± 1.8	7 (≈ 2.82 µg/mL)	1.32	0.0449	–
COc1ccc(C(=O)N2CCN(C(=O)c3cc(O)c(=O)c(O)cc3C)CC2)cc1 [compound 877]	–	–	34.9 ± 7.2	16.5 ± 1.4	14 (≈ 5.58 µg/mL)	0.175	-0.232	–

Reference: US12606529B2, “Sulfur and amide tropolone inhibitors of nucleotidyl transferases and uses therefor” (Saint Louis University, priority 2019, dated 2026)
